Data taken from patent US20120157434A1, “Antimicrobial heterocyclic compounds for treatment of bacterial infections” (CSO of MicuRx Pharmaceuticals, Inc., priority 2007, published 2012).
≈ marks a conversion by molar mass, not a printed value. Where two headings read alike, the source gives them in different places.

What was measured:
[1] = tested on: methicillin-resistant Staphylococcus aureus (MRSA); test: MIC by agar dilution against a clinical isolate of MRSA; type: cell-based
Excerpt: The in vitro activity of compounds of the subject invention may be assessed by standard testing procedures such as the determination of minimum inhibitory concentration (MIC) by agar dilution as described in “Approved Standard. Methods for Dilution Antimicrobial Susceptibility Tests for Bacteria that Grow Aerobically,” 3rd ed., published 1993 by the National Committee for Clinical Laboratory standards, Villanova, Pa., USA.
The in vitro MICs of test compounds may be determined by a standard agar dilution method. A stock drug solution of each analog is prepared in a preferred solvent, usually DMSO:H2O (1:3). Serial 2-fold dilutions of each sample are made using 1.0 ml aliquots of sterile distilled water. To each 1.0 ml aliquot of drug is added 9 ml of molten Mueller Hinton agar medium. The drug-supplemented agar is mixed, poured into 15×100 mm petri dishes, and allowed to solidify and dry prior to inoculation.
Vials of each of the test microorganisms are maintained frozen in the vapor phase of a liquid nitrogen freezer. Test cultures are grown overnight at 35° C. on the medium appropriate for the microorganism. Colonies are harvested with a sterile swab, and cell suspensions are prepared in Trypticase Soy broth (TSB) to equal the turbidity of a 0.5 McFarland standard. A 1:20 dilution of each suspension is made in TSB. The plates containing the drug supplemented agar are inoculated with a 0.001 ml drop of the cell suspension using a Steers replicator, yielding approximately 10^4 to 10^5 cells per spot. The plates are incubated overnight at 35° C.
Following incubation the Minimum Inhibitory Concentration (MIC μg/ml), the lowest concentration of drug that inhibits visible growth of the microorganism, is read and recorded.
Compounds of this invention can have useful activity against a variety of pathogenic microorganisms. The in vitro activity of compounds of this invention can be assessed by standard testing procedures such as the determination of minimum inhibitory concentration (MIC) by agar dilution as described in “Approved Standard. Methods for Dilution Antimicrobial Susceptibility Tests for Bacteria That Grow Aerobically”, 3rd. ed., published 1993 by the National Committee for Clinical Laboratory Standards, Villanova, Pa., USA. Minimum inhibitory concentration (MIC) refers to the lowest concentration of drug (μg/mL) that inhibits visible growth of the organism. Lower MIC values indicate a higher antibacterial activity. […] The activity of compounds of present invention against a clinical isolate of methicillin-resistant Staphylococcus aureus (MRSA; from the Massachusetts General Hospital, USA) is exemplified by the MIC data of Table 1.

[2] = target: T1, Human monoamine oxidase (MOA) A type enzyme (Homo sapiens, UniProt P21397); test: MAO A inhibition, MAO-Glo assay kit (Promega); type: biochemical; settings: luminogenic substrate; for IC50: read-out: MAO-I IC50, μg/mL (converted)
T1 sequence (P21397 1-527): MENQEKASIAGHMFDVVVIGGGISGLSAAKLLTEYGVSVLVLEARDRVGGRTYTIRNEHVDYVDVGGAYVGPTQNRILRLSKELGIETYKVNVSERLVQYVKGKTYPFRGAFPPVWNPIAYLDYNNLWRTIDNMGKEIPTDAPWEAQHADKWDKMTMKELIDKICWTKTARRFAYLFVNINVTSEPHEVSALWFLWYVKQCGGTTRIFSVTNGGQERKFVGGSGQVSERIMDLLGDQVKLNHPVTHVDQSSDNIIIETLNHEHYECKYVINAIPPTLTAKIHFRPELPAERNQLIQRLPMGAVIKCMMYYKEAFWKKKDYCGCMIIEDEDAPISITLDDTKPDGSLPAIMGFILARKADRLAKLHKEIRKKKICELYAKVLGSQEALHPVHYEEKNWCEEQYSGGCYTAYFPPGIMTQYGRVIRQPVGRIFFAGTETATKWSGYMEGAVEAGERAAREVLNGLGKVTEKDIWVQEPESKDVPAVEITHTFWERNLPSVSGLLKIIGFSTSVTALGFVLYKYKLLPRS
Procedure: Human monoamine oxidase (MOA) A type enzyme inhibition activity for select compounds was measured using a commercial MAO assay kit MAO-Glo™ from Promega Co. (USA). The assay was performed as described in the company's technical bulletin MAOGlo™ Assay”. The protocol involves an incubation of the MAO A enzyme with a luminogenic MAO substrate to produce an enzymatic product which is converted to luciferin by a coupled reaction. The released luciferin undergoes further transformation to generate light that is detected and measured. The amount of the light is directly proportional to the activity of MAO. Percent inhibition at several concentrations is established relative to the uninhibited control rate, and the IC50 values are calculated. […] The MAO inhibition data for select compound of this invention are illustrated in the Table 1.

[3] = Staphylococcus aureus, read-out: MRSA, MIC, μg/mL
[4] = clinical isolate of methicillin-resistant Staphylococcus aureus (Massachusetts General Hospital, USA), agar dilution, read-out: MRSA, MIC

Compound | MIC [1, 3] | MIC [1, 4] | IC50 [2] | MAO-I IC50 [2]
CC(=O)NC[C@@H]1OC(=O)N2c3ccc(-c4ccc(-c5nnn(C)n5)nc4)cc3C[C@@H]12 [Example 1, N-(((1S,9aS)-7-(6-(2-methyl-2H-tetrazol-5-yl)pyridin-3-yl)-3-oxo-1,3,9,9a-tetrahydrooxazolo[3,4-a]indol-1-yl)methyl)acetamide] | 0.5 µg/mL (≈ 1.23 µM) | – | – | –
CC(=O)NC[C@@H]1OC(=O)N2c3ccc(-c4ccc(-n5cnnn5)nc4)cc3C[C@@H]12 [Example 4, N-(((1S,9aS)-7-(6-(1H-tetrazol-1-yl)pyridin-3-yl)-3-oxo-1,3,9,9a-tetrahydrooxazolo[3,4-a]indol-1-yl)methyl)acetamide] | – | 0.5 µg/mL (≈ 1.28 µM) | 353 µM | –
CC(=O)NC[C@@H]1OC(=O)N2c3ccc(-c4ccc(C5=NOC(CO)C5)nc4)cc3C[C@@H]12 (stereo partly drawn) [Example 8, N-(((1S,9aS)-7-(6-(5-(hydroxymethyl)-4,5-dihydroisoxazol-3-yl)pyridin-3-yl)-3-oxo-1,3,9,9a-tetrahydrooxazolo[3,4-a]indol-1-yl)methyl)acetamide] | 1 µg/mL (≈ 2.37 µM) | – | – | –
CC(=O)NC[C@@H]1OC(=O)N2c3ccc(-c4ccc(N5CCOC5=O)nc4)cc3C[C@@H]12 [Example 3, N-(((1S,9aS)-3-oxo-7-(6-(2-oxooxazolidin-3-yl)pyridin-3-yl)-1,3,9,9a-tetrahydrooxazolo[3,4-a]indol-1-yl)methyl)acetamide] | 0.25 µg/mL (≈ 0.612 µM) | – | – | –
CC(=O)NC[C@H]1CN(c2ccc(N3CCOCC3)c(F)c2)C(=O)O1 [Linezolid, linezolid, reference compound] | – | 2 µg/mL (≈ 5.93 µM) | – | 5 µg/mL
CC(=O)NC[C@@H]1OC(=O)N2c3ccc(-c4ccc(C(=O)Cn5ccnc5)nc4)cc3C[C@@H]12 [Example 11, N-(((1S,9aS)-7-(6-(2-(1H-imidazol-1-yl)acetyl)pyridin-3-yl)-3-oxo-1,3,9,9a-tetrahydrooxazolo[3,4-a]indol-1-yl)methyl)acetamide] | 1 µg/mL (≈ 2.32 µM) | – | > 232 µM | –
CC(=O)NC[C@@H]1OC(=O)N2c3ccc(-c4ccc([C@@]5(C#N)[C@@H]6CNC[C@@H]65)nc4)cc3C[C@@H]12 [Example 18, N-(((1S,9aS)-7-(6-((1R,5S,6s)-6-cyano-3-azabicyclo[3.1.0]hexan-6-yl)pyridin-3-yl)-3-oxo-1,3,9,9a-tetrahydrooxazolo[3,4-a]indol-1-yl)methyl)acetamide] | – | 0.5 µg/mL (≈ 1.16 µM) | > 233 µM | –
CC(=O)NC[C@@H]1OC(=O)N2c3ccc(N4Cc5cccnc5C4)cc3C[C@@H]12 [Example 6, N-(((1S,9aS)-3-oxo-7-(5H-pyrrolo[3,4-b]pyridin-6(7H)-yl)-1,3,9,9a-tetrahydrooxazolo[3,4-a]indol-1-yl)methyl)acetamide] | – | 0.5 µg/mL (≈ 1.37 µM) | – | –
CC(=O)NC[C@@H]1OC(=O)N2c3ccc(-c4ccc(-c5nnnn5C)nc4)cc3C[C@@H]12 [Example 2, N-(((1S,9aS)-7-(6-(1-methyl-1H-tetrazol-5-yl)pyridin-3-yl)-3-oxo-1,3,9,9a-tetrahydrooxazolo[3,4-a]indol-1-yl)methyl)acetamide] | – | 0.5 µg/mL (≈ 1.23 µM) | – | –
